The results in this text go back to US20240342292A1, “Compounds for the Degradation of EGFR Kinase” (BeiGene Switzerland GmbH, priority 2021, published 2024).

The term DC50 denotes the concentration at which degradation of the target reaches its halfway point. Lower therefore signals degradation at low concentration. The term Dmax denotes the greatest extent of degradation seen. A low value points to shallow degradation.

The test system of one test is Del19/T790M/C797S EGFR. Kind of test: EGFR degradation HTRF assay in H1975-clone #28 (DTC) cells. The settings on record: H1975 # 28 DTC (Del19/T790M/C797S), 16h treatment; for DC50: HTRF; for Dmax (%): maximum percentage of degradation. The test is classed as cell-based. The method in brief:
(§1)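 Engineered H1975 lines (exogenous mutant EGFR, endogenous copies knocked out, single clones sequence-verified); 16 h compound, 37 °C/5% CO2, 0.2% DMSO; top 10 uM, 5-fold, 8 pts; lysis 1 h RT, HTRF antibodies overnight RT; 4-parameter logistic fit → DC50.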
(In general: In TR-FRET formats the signal depends on donor and acceptor labels being close together.)

The target in the next test is T1, L858R/T790M/C797S EGFR (Homo sapiens, UniProt P00533, C797S/L858R/T790M).
T1 construct: expressed in transfected cells; host or cells: H1975 clone #25 (lentiviral over-expression, endogenous EGFR knocked out by sgRNA)
T1 sequence (P00533 25-1210 T790M/C797S/L858R): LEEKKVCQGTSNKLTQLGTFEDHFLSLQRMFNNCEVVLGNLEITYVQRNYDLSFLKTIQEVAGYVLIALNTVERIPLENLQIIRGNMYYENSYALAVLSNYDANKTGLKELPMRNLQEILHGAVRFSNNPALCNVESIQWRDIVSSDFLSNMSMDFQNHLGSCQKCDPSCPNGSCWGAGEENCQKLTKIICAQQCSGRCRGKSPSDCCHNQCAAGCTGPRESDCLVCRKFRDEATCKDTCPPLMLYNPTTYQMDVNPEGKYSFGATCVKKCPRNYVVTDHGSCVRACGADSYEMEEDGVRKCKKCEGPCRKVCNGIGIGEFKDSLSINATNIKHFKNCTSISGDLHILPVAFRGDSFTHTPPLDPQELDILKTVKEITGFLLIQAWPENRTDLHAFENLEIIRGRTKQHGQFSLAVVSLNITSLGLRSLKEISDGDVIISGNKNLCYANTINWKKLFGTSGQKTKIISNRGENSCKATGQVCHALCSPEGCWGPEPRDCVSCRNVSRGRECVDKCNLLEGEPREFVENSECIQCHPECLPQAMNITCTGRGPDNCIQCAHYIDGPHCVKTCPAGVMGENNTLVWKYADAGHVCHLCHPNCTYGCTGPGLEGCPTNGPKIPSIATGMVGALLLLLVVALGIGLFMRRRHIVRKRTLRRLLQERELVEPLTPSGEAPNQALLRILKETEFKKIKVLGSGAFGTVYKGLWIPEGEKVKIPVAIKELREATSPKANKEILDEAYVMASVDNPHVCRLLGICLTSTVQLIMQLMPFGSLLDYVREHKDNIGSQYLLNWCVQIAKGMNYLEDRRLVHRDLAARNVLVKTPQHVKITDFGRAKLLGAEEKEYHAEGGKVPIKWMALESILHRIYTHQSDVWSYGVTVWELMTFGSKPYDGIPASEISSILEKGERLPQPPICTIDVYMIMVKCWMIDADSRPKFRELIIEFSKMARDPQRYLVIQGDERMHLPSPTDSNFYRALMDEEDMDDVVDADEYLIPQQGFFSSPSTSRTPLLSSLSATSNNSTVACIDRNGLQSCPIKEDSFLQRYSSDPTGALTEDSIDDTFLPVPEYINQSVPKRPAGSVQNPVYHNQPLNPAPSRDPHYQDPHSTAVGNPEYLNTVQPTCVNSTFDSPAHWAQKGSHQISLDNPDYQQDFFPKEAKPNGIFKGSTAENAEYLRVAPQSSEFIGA
Kind of test: EGFR degradation HTRF assay in H1975-clone #25 (LTC) cells. The test is classed as cell-based. The settings on record: 16h treatment; for DC50: H1975 # 25-LTC (L858R/T790M/C797S), HTRF; for Dmax: NCI-H1975, H1975 # 25-LTC (L858R/T790M/C797S), maximum percentage of degradation. In outline: as §1

Regarding `Cc1cc2cc(n1)-c1cnn(C)c1OCCC[C@@H](C)CN1/C(=N/C2=O)Nc2cc(C)c(CN3CCN(CC4CN(c5cc(F)c([C@H]6CCC(=O)NC6=O)c(F)c5)C4)CC3)cc21` [Example 147, (R)-3-(2,6-difluoro-4-(3-((4-(((R,E)-1^1,2^6,5,7-tetramethyl-3-oxo-5^2,5′-dihydro-1^1H,5^1H-11-oxa-4-aza-5(2,1)-benzo[d]imidazola-2(2,4)-pyridina-(4,5)-pyrazolacycloundecaphane-5^6-yl)methyl)piperazin-1-yl)methyl)azetidin-1-yl)phenyl)piperidine-2,6-dione], in the test on Del19/T790M/C797S EGFR, the DC50 was 2.41 nM and the “Dmax (%)” value was 69.47%. At L858R/T790M/C797S EGFR, this compound gave a DC50 of 1.83 nM and a Dmax of 81.4%.

For the compound `Cc1cc2cc(n1)-c1cnn(C)c1OCCC[C@@H](C)CN1/C(=N/C2=O)Nc2ccc(N3CCC(C(=O)N4CCC(Oc5cc(F)c([C@H]6CCC(=O)NC6=O)c(F)c5)CC4)CC3)cc21` [Example 364, (R)-3-(2,6-difluoro-4-((1-(1-((R,E)-1^1,2^6,7-trimethyl-3-oxo-5^2,53-dihydro-1^1H,5^1H-11-oxa-4-aza-5(2,1)-benzo[d]imidazola-2(2,4)-pyridina-1(4,5)-pyrazolacycloundecaphane-5^6-yl)piperidine-4-carbonyl)piperidin-4-yl)oxy)phenyl)piperidine-2,6-dione], in the test with Del19/T790M/C797S EGFR, half-maximal degradation (DC50) was put at 0.633 nM and the “Dmax (%)” value turned out to be 75.27%. At L858R/T790M/C797S EGFR, this compound returned a DC50 of 1.12 nM and a Dmax of 86.4%.

For `Cc1cc2cc(n1)-c1cnn(C)c1OCCC[C@@H](C)CN1/C(=N/C2=O)Nc2ccc(C(=O)N[C@@H]3CCN(CCc4cc(F)c([C@H]5CCC(=O)NC5=O)c(F)c4)CC3(C)C)cc21` [Example 263, (R,E)-N—((R)-1-(4-((R)-2,6-dioxopiperidin-3-yl)-3,5-difluorophenethyl)-3,3-dimethylpiperidin-4-yl)-1^1,2^6,7-trimethyl-3-oxo-5^2,5^3-dihydro-1H,5^1H-11-oxa-4-aza-5(2,1)-benzo[d]imidazola-2(2,4)-pyridina-1(4,5)-pyrazolacycloundecaphane-5^6-carboxamide], in the test on Del19/T790M/C797S EGFR, the 50% degradation concentration (DC50) came out at 0.597 nM and the “Dmax (%)” value worked out at 78.67%. At L858R/T790M/C797S EGFR, the DC50 was found to be 0.351 nM and the Dmax worked out at 93.6%.

Turning to `Cc1cc2cc(n1)-c1cnn(C)c1OCCC[C@@H](C)CN1/C(=N/C2=O)Nc2ccc(OC3CCN(C(=O)C4CN(c5cc(F)c([C@H]6CCC(=O)NC6=O)c(F)c5)C4)CC3)cc21` [Example 156, (R)-3-(2,6-difluoro-4-(3-(4-(((R,E)-1^1,2^6,7-trimethyl-3-oxo-5^2,5^3-dihydro-1^1H,5^1H-11-oxa-4-aza-5(2,1)-benzo[d]imidazola-2(2,4)-pyridina-1(4,5)-pyrazolacycloundecaphane-5^6-yl)oxy)piperidine-1-carbonyl)azetidin-1-yl)phenyl)piperidine-2,6-dione], in the test with Del19/T790M/C797S EGFR, the DC50 was determined as 1.2 nM and the “Dmax (%)” value is on record as 72.74%. On L858R/T790M/C797S EGFR, half-maximal degradation (DC50) was put at 0.634 nM and the Dmax came out at 86.9%.

For the compound `Cc1cc2cc(n1)-c1cnn(C)c1OCCC[C@@H](C)CN1/C(=N/C2=O)Nc2ccc(N3CCN(C4CCN(c5cc(F)c([C@H]6CCC(=O)NC6=O)c(F)c5)CC4)CC3)cc21` [Example 324, (R)-3-(2,6-difluoro-4-(4-(4-((R,E)-1^1,26,7-trimethyl-3-oxo-5^2,5^3-dihydro-1^1H,5^1H-11-oxa-4-aza-5(2, 1)-benzo[d]imidazola-2(2,4)-pyridina-1(4,5)-pyrazolacycloundecaphane-5^6-yl)piperazin-1-yl)piperidin-1-yl)phenyl)piperidine-2,6-dione], in the test with Del19/T790M/C797S EGFR, it took 0.859 nM to reach half-maximal degradation (DC50) and the “Dmax (%)” value came out at 78.7%. For the same compound, on L858R/T790M/C797S EGFR, half-maximal degradation (DC50) was put at 1.02 nM and the Dmax was 91.1%.

For `Cc1cc2cc(n1)-c1cnn(C)c1OCCC[C@@H](C)CN1/C(=N/C2=O)Nc2ccc(C(=O)N(C)C3CN(C4CCN(c5cc(F)c([C@H]6CCC(=O)NC6=O)c(F)c5)CC4)C3)cc21` [Example 309, (R,E)-N-(1-(1-(4-((R)-2,6-dioxopiperidin-3-yl)-3,5-difluorophenyl)piperidin-4-yl)azetidin-3-yl)-N,1′,2^6,7-tetramethyl-3-oxo-5^2,5^3-dihydro-1^1H,5^1H-11-oxa-4-aza-5(2,1)-benzo[d]imidazola-2(2,4)-pyridina-1(4,5)-pyrazolacycloundecaphane-5^6-carboxamide], in the test with Del19/T790M/C797S EGFR, the DC50 came out at 0.684 nM and the “Dmax (%)” value was determined as 65.2%. On L858R/T790M/C797S EGFR, the DC50 came out at 0.459 nM and the Dmax was found to be 83%.

Consider `COC[C@H]1CN(C2CCN(c3cc(F)c([C@H]4CCC(=O)NC4=O)c(F)c3)CC2)CCN1c1ccc2c(c1)N1C[C@H](C)CCCOc3c(cnn3C)-c3cc(cc(C)n3)C(=O)/N=C/1N2` [Example 385, (R)-3-(2,6-difluoro-4-(4-((R)-3-(methoxymethyl)-4-((R,E)-1^1,2^6,7-trimethyl-3-oxo-5^2,5^3-dihydro-1^1H,5^1H-li-oxa-4-aza-5(2,1)-benzo[d]imidazola-2(2,4)-pyridina-1(4,5)-pyrazolacycloundecaphane-5^6-yl)piperazin-1-yl)piperidin-1-yl)phenyl)piperidine-2,6-dione], for which, in the test with Del19/T790M/C797S EGFR, half-maximal degradation (DC50) was put at 1.58 nM and the “Dmax (%)” value is given as 63.01%. Also, on L858R/T790M/C797S EGFR, the DC50 came out at 2.63 nM and the Dmax was 82.3%.

Regarding `Cc1cc2cc(n1)-c1cnn(C)c1OCCC[C@@H](C)CN1/C(=N/C2=O)Nc2ccc(N3C[C@H](C)N(C4CCN(c5cc(F)c([C@H]6CCC(=O)NC6=O)c(F)c5)CC4)C[C@H]3C)cc21` [Example 380, (R)-3-(4-(4-((2S,5R)-2,5-dimethyl-4-((R,E)-1^1,2^6,7-trimethyl-3-oxo-5^2,5^1-dihydro-1^1H,5^1H-11-oxa-4-aza-5(2,1)-benzo[d]imidazola-2(2,4)-pyridina-1(4,5)-pyrazolacycloundecaphane-5^6-yl)piperazin-1-yl)piperidin-1-yl)-2,6-difluorophenyl)piperidine-2,6-dione], in the test on Del19/T790M/C797S EGFR, the DC50 is 2.25 nM and the “Dmax (%)” value turned out to be 76.83%. At L858R/T790M/C797S EGFR, the half-maximal degradation concentration (DC50) amounted to 3.35 nM and the Dmax was 80.2%.

As to `Cc1cc2cc(n1)-c1cnn(C)c1OCC[C@H]1C[C@@H]1CN1/C(=N/C2=O)Nc2ccc(N3CCN(C4CCN(c5ccc(C6CCC(=O)NC6=O)nc5C)CC4)CC3)cc21` (stereo partly shown) [Example 465, 3-(5-(4-(4-((7^1S,7^2R,E)-1^1,2^6-dimethyl-3-oxo-5^2,5^3-dihydro-1^1H,5^1H-10-oxa-4-aza-5(2,1)-benzo[d]imidazola-2(2,4)-pyridina-1(4,5)-pyrazola-7(1,2)-cyclopropanacyclodecaphane-5^6-yl)piperazin-1-yl)piperidin-1-yl)-6-methylpyridin-2-yl)piperidine-2,6-dione], in the test on Del19/T790M/C797S EGFR, half-maximal degradation (DC50) was put at 0.319 nM and the “Dmax (%)” value was 90.39%. Also, at L858R/T790M/C797S EGFR, half-maximal degradation (DC50) was put at 0.472 nM and the Dmax turned out to be 94.8%.

For the compound `Cc1cc2cc(n1)-c1cnn(C)c1OCC[C@@H]1C[C@H]1CN1/C(=N/C2=O)Nc2ccc(N3CCN(C4CCN(c5cc(F)c([C@H]6CCC(=O)NC6=O)c(F)c5)CC4)CC3)cc21` [Example 441, (R)-3-(4-(4-(4-((7′R,7^2S,E)-1^1,2^6-dimethyl-3-oxo-5^2,5^3-dihydro-1^1H,5^1H-10-oxa-4-aza-5(2,1)-benzo[d]imidazola-2(2,4)-pyridina-1(4,5)-pyrazola-7(1,2)-cyclopropanacyclodecaphane-5^6-yl)piperazin-1-yl)piperidin-1-yl)-2,6-difluorophenyl)piperidine-2,6-dione], in the test with Del19/T790M/C797S EGFR, the DC50 amounted to 0.643 nM and the “Dmax (%)” value is reported as 89.27%. In addition, at L858R/T790M/C797S EGFR, the DC50 is 0.857 nM and the Dmax was 89.2%.
